Columns and labels:
[1] = Heat coloring of carbohydrate with glutamic acid (Test Example 1); assay type: physicochemical; conditions: for absorbance at a wavelength of 420 nm: 5 g carbohydrate + 1 g glutamic acid in 50 g
Experimental: 5 g of carbohydrate and 1 g of glutamic acid were dissolved in distilled water to prepare a sample having a total weight of 50 g. […] These samples were filled in 100 ml capped vials and then heated at 100° C. for 50 min. After the heating, samples were cooled and respective absorbances were measured at a wavelength of 420 nm.
Three same kinds of samples were prepared and treated in an autoclave at 121° C. for 20 min, that is, the same level as in retort sterilization for a canned food, and measured the absorbance at a wavelength of 420 nm.

[2] = Crystallization of 50 wt % solutions stored at 5° C. (Test Example 2); assay type: physicochemical
Experimental: Dissolution was performed until no crystal remained at 50° C. These vials were put in a refrigerator set at 5° C. to observe crystallization.

[3] = Blood glucose level test after ingesting drinks (Example 1); assay type: in vivo, human; conditions: for blood glucose level increase: FIG. 1
Experimental: Using each of the Comparative drinks as a control sample, a blood glucose level test after ingesting the drink was performed as will be described later. […] Using each of the Example drinks as a test sample, a blood glucose level test after ingesting the drink was performed. The blood glucose level test was as follows: Five healthy volunteers (4 males and 1 female), 31-40 aged, were selected as the test subjects. They took no breakfast on a test day and kept fasting for 12 hrs or more before the start of the test. Their bloods were collected before ingesting a drink (0 min), and 30 min, 60 min, 90 min, and 120 min after ingesting it. As a result their blood glucose levels are determined. One kind of drink was ingested for one test. Another drink was ingested on another day and the test was carried out once a day for total 8 days. The same five test subjects were applied to all the tests for blood glucose levels. In the Example 1, the free style Kissei kit (made by Kissei Pharmaceutical Co., LTD) was used to collect blood samples and test a blood glucose level.

[4] = monohydrate; at 20° C.; cited from earlier work
[5] = rats; high fat diet, all sucrose replaced by isomaltulose, compared with sucrose-containing feed; cited from earlier work
[6] = Body fat accumulation in mice fed feeds for 8 weeks (Example 3); assay type: in vivo, C57BL/6CrSlc(SPF) male mice
From the text: Mice were consecutively fed with a feed added with isomaltulose, a feed added with sucrose and no isomaltulose, and a feed added with both isomaltulose and sucrose to compare their body fat accumulation amount.
C57BL/6CrSlc(SPF) male mice (30 heads) aged 7 weeks were fed with a commercial powder feed (trade name: CRF-1 powder, made by Oriental Yeast Co., LTD) and water ad libitum to prefeed for a week. […] The groups were fed with their respective feeds and water ad libitum for 8 weeks. The feeding condition was as follows: temperature 22±3° C., humidity (relative humidity) 50±20%, ventilation cycles 13-17 times/hr, and lighting time 8:00-20:00 (light 12 hrs, dark 12 hrs).
After the end of the feeding, the mice were light anesthetized with ether and sectioned abdominally to exsanguinate from postcava to death. For a typical example of every group, digital photographs showing body fat accumulation inside the abdominal cavity were taken. Then, for all the cases, the kidney peripheral fat (including the retroperitoneal fat) and the epididymis peripheral fat were taken out to measure their wet weights separately in left and right. The mesenteric fat also was taken out to measure its wet weight. These three kinds of fat tissues are typical of visceral fat. […]

[7] = autoclave at 121° C. for 20 min

SMILES	visual colour of sample [1, 7]	crystallization observed ([2]; 50 wt % total sugar solution, during 6 days)	blood glucose level 30 minutes after ingesting ([3]; 25 g ingested alone (Comparative example))	blood glucose level 30 minutes after ingesting ([3]; 50 g ingested alone (Comparative example))	absorbance at a wavelength of 420 nm [1, 7]	absorbance at a wavelength of 420 nm ([1]; heated at 100° C. for 50 min)	solubility [4] [g in 100 g water]	storage time at which crystallization began ([2]; 50 wt % solution, 100 ml) [days]	amount of crystal ([2]; 50 wt % solution, 100 ml, after 6 days) [g]	body fat accumulation amount [5]	ratio of isomaltulose in carbohydrate at which it reduces the accumulation of body fat ([6]; mouse, in vivo) [%]	minimum intake of isomaltulose necessary to reduce a body fat accumulation ([6]; presumed, in terms of a person having a body weight of 60 kg) [g]	increase in blood glucose level after consuming the carbohydrates ([3]; 25 g isomaltulose in combination with 25 g sucrose or 25 g glucose)	area under blood glucose level increase curve ([3]; 25 g isomaltulose in combination with 25 g sucrose or 25 g glucose, compared with the Comparative groups)	minimum intake of isomaltulose necessary to reduce an increase in blood glucose level ([3]; in vivo) [g]	blood glucose level increase ([3]; simultaneous ingestion of 25 g isomaltulose and 25 g glucose, compared with 25 g glucose alone)	blood glucose level increase ([3]; simultaneous ingestion of 25 g isomaltulose and 25 g sucrose, compared with 50 g sucrose alone and 25 g sucrose alone)	isomaltulose ratio in total carbohydrate at which the GI value surely decreased ([3]; total carbohydrate weight 50 g, FIG. 4) [%]
OC[C@H]1O[C@@](CO)(O[C@H]2O[C@H](CO)[C@@H](O)[C@H](O)[C@H]2O)[C@@H](O)[C@@H]1O [sucrose, reference compound]	clearly light brown	no crystallization	sudden increase	sudden increase														
OC[C@H]1O[C@H](OC[C@H]2OC(O)(CO)[C@@H](O)[C@@H]2O)[C@H](O)[C@@H](O)[C@@H]1O (stereo partly drawn) [isomaltulose, 6-O-alpha-D-Glucopyranosyl-D-fructofuranose]	clearly deep brown				0.322	0.004	38.4	2	10.77	lower body fat accumulation amount	≥ 20	≥ 10	no sudden increases	significantly lower values	≥ 5	reduced	reduced	≥ 10

Reference: patent US9017744B2, “Method of using isomaltulose to suppress blood glucose level increase” (Mitsui Sugar Co., Ltd., priority 2002, dated 2015)
